“Also recorded” adds a separate entry of the source. Where two headings read alike, the source gives them in different places.
Experiments:
[1] = comparison polymorphs, cited from earlier work
[2] = cited from earlier work; for Hygroscopicity: Wt. increase: 5~95% RH
[3] = Accelerated stability studies (storage, XRPD)
[4] = Thermal stability (polymorph conversion on heating, XRPD); format: physicochemical
Description: In one embodiment, Form DH converts to a different polymorph at an elevated temperature (e.g., 170° C. or higher). In one embodiment, when heated to 170° C., Form DH converts to a polymorph characterized by an XRPD pattern substantially similar to that set forth in FIG. 10 (“Form F”). In one embodiment, when heated to 190° C., Form DH converts to a polymorph characterized by an XRPD pattern substantially similar to that set forth in FIG. 11 (“Form A”).
In one embodiment, Form α converts to a different polymorph at an elevated temperature (e.g., 230° C. or higher). In one embodiment, when heated to 230° C., Form α converts to a polymorph characterized by an XRPD pattern substantially similar to that set forth in FIG. 26 (“Form A”).

[5] = Crystallinity of polymorphs; format: physicochemical; settings: polymorphs of the application
Description: XRPD patterns of the polymorphs obtained in the Examples were collected on a D/MAX 2500 diffractometer using the following setting: Cu Kα radiation λ 1.5418 Å, 40 kV, 200 mA, […] 2-40° at 8°/min.

[6] = Hygroscopicity, dynamic vapor sorption (DVS); format: physicochemical; settings: 25° C., 1~95% RH
Description: About 3 mg Form DH prepared in Example 1 was subject to dynamic vapor sorption analysis with a VTI-SA+ type dynamic vapor sorption analyzer (US TA Instruments Company). The temperature was 25° C., and the range of the relative humidity was 1-95%.
About 3 mg Form α prepared in Example 4 was subject to Dynamic Vapor Sorption analysis with a VTI-SA+ type dynamic vapor sorption analyzer (US TA Instruments Company). The temperature was 25° C., and the range of the relative humidity was 1-95%.

[7] = Stability of polymorphs in solution (suspension in solvent, XRPD of the solid); format: physicochemical; settings: for Stability in solution: polymorphic form: ethanol, acetonitrile, tetrahydrofuran, ethyl acetate, and dioxane, 20° C. for 24 hours; for Stability in solution: polymorph converted (Cv.) to: suspension kept at 20° C. for 24 hours
Description: (§1) 15 mg of the polymorph obtained in Example 1 was placed in a 2 mL container. 1 mL of the each of the following solvents was added: methanol, ethanol, acetone, acetonitrile, tetrahydrofuran, nitromethane, ethyl acetate, or dioxane. The container was sonicated to dissolve Compound A. The resulting supersaturated suspension was kept at 20° C. for 24 hours. After centrifugation, the supernatant was removed, and the solid was dried at 45° C. for 2 hours. The XRPD of the solid was measured.
as §1, with “Example 4” for “Example 1”, “tetrahydrofuran,” for “tetrahydrofuran, nitromethane,”, “acetate, dioxane,” for “acetate,”, “or water.” for “or dioxane.”

[8] = Powder dissolution study in water; format: physicochemical; settings: 500 mg in 500 mL water, 50 rpm, up to 300 min
Description: Samples (2 mL) were collected at 1 min, 2 min, 5 min, 10 min, 15 min, 20 min, 30 min, 40 min, 50 min, 60 min, 80 min, 100 min, 120 min, 150 min, 180 min, 210 min, 240 min, 270 min, and 300 min. Water (2 mL) was added each time when a sample was taken. The XRPD of the solid samples were measured.

[9] = cited from earlier work
[10] = in acetone; comparison polymorphs; listed as B; cited from earlier work
[11] = comparison polymorphs, cited from earlier work; remark: listed apart in the source
[12] = Study of polymorphic forms of Compound A stirred in water (XRPD); format: physicochemical; settings: 300 rpm
Description: 600 mg Compound A was placed in a 100 mL container. After 40 mL water was added, the container was stirred at 300 rpm at 20° C. After 12 hours, a sample was taken from the container and an XRPD was measured. […] The XRPD, TG, and DSC of Form E are shown in FIGS. 12, 13, and 14, respectively.
600 mg Compound A was placed in a 100 mL container. After 40 mL water was added, the container was stirred at 300 rpm at 25° C. After 48 hours, a sample was taken from the container and an XRPD was measured. […] A sample taken after 168 hours at 25° C. still had the same XRPD as the Form E polymorph described in Chinese Patent No. 1871003.
600 mg Compound A was placed in a 100 mL container. After 40 mL water was added, the container was stirred at 300 rpm at 15° C. After 10 hours, a sample was taken from the container and an XRPD was measured.

**Q.** With Nc1cccc2c1CN(C1CCC(=O)NC1=O)C2=O (centres unmarked) [Form C, 3-(4-amino-1-oxoisoindolin-2-yl)piperidine-2,6-dione] as the molecule, how does the Crystallinity ([1]; listed as C) read?
**A.** Good

**Q.** What about the “Hygroscopicity: Wt. loss” value ([2]; at 95% RH) of the same molecule?
**A.** by 6.03% at

**Q.** Which “Accelerated stability (stable, or polymorph converted to)” value ([3]; 28 days at RT/P2O5) does the source give for Nc1cccc2c1CN(C1CCC(=O)NC1=O)C2=O (stereo not drawn) [Form α, 3-(4-amino-1-oxoisoindolin-2-yl)piperidine-2,6-dione] here?
**A.** did not change

**Q.** What about the “Accelerated stability (stable, or polymorph converted to)” value ([3]; 28 days at RT/P2O5, listed as α) of the same molecule?
**A.** Stable after

**Q.** And the “Thermal stability: polymorph converted (Cv.) to” value (“Thermal stability … (Cv.) to” for short) ([4]; heated to 230° C.)?
**A.** Form A

**Q.** And the Crystallinity [5]?
**A.** Good

**Q.** What about the “Hygroscopicity: crystal form after DVS” value [6] of the same molecule?
**A.** remained unchanged

**Q.** And the “Hygroscopicity: Wt. increase” value ([6]; listed as α)?
**A.** No significant

**Q.** And the “Hygroscopicity: crystal form after DVS” value ([6]; listed as α)?
**A.** No change

**Q.** What about the “Stability in solution: polymorphic form” value ([7]; in methanol, acetone) of the same molecule?
**A.** stable; also recorded: maintained its polymorphic form as Form α

**Q.** And the “Stability in solution: polymorph converted (Cv.) to” value (shortened to “Stability in solution … (Cv.) to”) ([7]; in water)?
**A.** Form DH

**Q.** And the “Dissolution: crystal conversion (Cv.) during powder dissolution” value (“Dissolution: crystal conversion” below) [8]?
**A.** Form E

**Q.** For Nc1cccc2c1CN(C1CCC(=O)NC1=O)C2=O (centres unmarked) [Form B, 3-(4-amino-1-oxoisoindolin-2-yl)piperidine-2,6-dione], which Crystallinity ([1]; listed as B) is on record?
**A.** Good

**Q.** And the Accelerated stability ([9]; 85 days at 40° C./93% RH)?
**A.** Stable for 85

**Q.** And the Accelerated stability ([9]; 85 days at RT/0% RH)?
**A.** Stable for 85

**Q.** And the “Stability in solution … (Cv.) to” value [10]?
**A.** THF, to Form C

**Q.** And the “Hygroscopicity: Wt. increase” value [2]?
**A.** No significant

**Q.** What about the “Thermal stability … (Cv.) to” value ([11]; at 175° C.) of the same molecule?
**A.** Cv. to Form A at

**Q.** With Nc1cccc2c1CN(C1CCC(=O)NC1=O)C2=O (centres unmarked) [Form D, 3-(4-amino-1-oxoisoindolin-2-yl)piperidine-2,6-dione] as the molecule, how does the Crystallinity ([1]; listed as D) read?
**A.** Good

**Q.** With Nc1cccc2c1CN(C1CCC(=O)NC1=O)C2=O (centres unmarked) [Form DH, 3-(4-amino-1-oxoisoindolin-2-yl)piperidine-2,6-dione] as the molecule, how does the “Accelerated stability (stable, or polymorph converted to)” value ([3]; 28 days at 40° C./75% RH) read?
**A.** stable

**Q.** And the “Accelerated stability (stable, or polymorph converted to)” value ([3]; 28 days at 40° C./75% RH, listed as DH)?
**A.** Stable

**Q.** And the “Thermal stability … (Cv.) to” value ([4]; heated to 170° C.)?
**A.** Form F

**Q.** What about the “Thermal stability … (Cv.) to” value ([4]; heated to 190° C.) of the same molecule?
**A.** Form A

**Q.** What about the Crystallinity [5] of the same molecule?
**A.** Good

**Q.** What about the “Hygroscopicity: Wt. increase” value [6] of the same molecule?
**A.** No weight increase

**Q.** And the “Hygroscopicity: crystal form after DVS” value [6]?
**A.** remained unchanged

**Q.** And the “Hygroscopicity: Wt. increase” value ([6]; listed as DH)?
**A.** No significant

**Q.** And the “Hygroscopicity: crystal form after DVS” value ([6]; listed as DH)?
**A.** No change

**Q.** And the “Stability in solution … (Cv.) to” value ([7]; in acetone)?
**A.** Form C

**Q.** What about the “Stability in solution … (Cv.) to” value ([7]; in acetone, listed as DH) of the same molecule?
**A.** Form C in

**Q.** What about the “Stability in solution: polymorphic form” value ([7]; in water, methanol) of the same molecule?
**A.** maintained its polymorphic form as Form DH; also recorded: stable

**Q.** What about the “Dissolution: crystal conversion” value [8] of the same molecule?
**A.** did not change

**Q.** For Nc1cccc2c1CN(C1CCC(=O)NC1=O)C2=O (centres unmarked) [Form E, 3-(4-amino-1-oxoisoindolin-2-yl)piperidine-2,6-dione], which Crystallinity ([1]; listed as E) is on record?
**A.** Good

**Q.** For Nc1cccc2c1CN(C1CCC(=O)NC1=O)C2=O (centres unmarked) [Compound A, 3-(4-amino-1-oxoisoindolin-2-yl)piperidine-2,6-dione], which Crystallinity [1] is on record?
**A.** Good

**Q.** What about the “Hygroscopicity: Wt. increase” value [2] of the same molecule?
**A.** No significant

**Q.** What about the Thermal stability ([11]; temperature not given) of the same molecule?
**A.** No Cv.

**Q.** What about the “Dissolution: crystal conversion” value [8] of the same molecule?
**A.** Form E

**Q.** What about the “Polymorphic form by XRPD after stirring in water” value (shortened to “Polymorphic form by XRPD”) ([12]; 15° C., 34 hours) of the same molecule?
**A.** Form DH

**Q.** And the “Polymorphic form by XRPD” value ([12]; 15° C., after 10 hours)?
**A.** Form E

**Q.** And the “Polymorphic form by XRPD” value ([12]; 20° C., 108 hours)?
**A.** Form DH

**Q.** What about the “Polymorphic form by XRPD” value ([12]; 20° C., after 12 hours) of the same molecule?
**A.** Form E

**Q.** And the “Polymorphic form by XRPD” value ([12]; 25° C., after 48 hours)?
**A.** Form E

**Q.** What about the “Polymorphic form by XRPD” value ([12]; 25° C., after 168 hours) of the same molecule?
**A.** Form E

**Q.** With Nc1cccc2c1CN(C1CCC(=O)NC1=O)C2=O (centres unmarked) [Form H, 3-(4-amino-1-oxoisoindolin-2-yl)piperidine-2,6-dione] as the molecule, how does the Crystallinity [1] read?
**A.** relatively poor

Source: patent US20180282297A1, “POLYMORPHS OF 3-(4-AMINO-1-OXOISOINDOLIN-2-YL)PIPERIDINE-2,6-DIONE” (Shenzhen Jingtai Technology Co., Ltd., priority 2017, published 2018)
